# From publication PMC2676116 (Molecular cancer therapeutics, 2009)
# Legend:
# Tdp1 [1] = molecular target: T1, Tdp1 (Homo sapiens, UniProt Q9NUW8); conditions: cited from earlier work
# Tdp1 [2] = molecular target: T1, Tdp1; assay: Secondary radiolabel gel-based assay; format: biochemical; conditions: Fig. 5B & C
# Tdp1 [3] = molecular target: T1, Tdp1; assay: Tdp1 AlphaScreen HTS assay; format: biochemical; conditions: for Tdp1 inhibition (in words): AlphaScreen primary / follow-up HTS assay, Fig. 5C
# H493R Tdp1 mutant = H493R Tdp1 mutant (Homo sapiens, UniProt Q9NUW8, H493R); assay: SCAN1 Tdp1 mutant covalent Tdp1-DNA intermediate; format: biochemical; conditions: for accumulation of the covalent Tdp1-DNA intermediate: 10 μM concentration, H493R Tdp1 100 nM
# CD-45 associated PTP = conditions: cited from earlier work
# T1 sequence (Q9NUW8 whole entry): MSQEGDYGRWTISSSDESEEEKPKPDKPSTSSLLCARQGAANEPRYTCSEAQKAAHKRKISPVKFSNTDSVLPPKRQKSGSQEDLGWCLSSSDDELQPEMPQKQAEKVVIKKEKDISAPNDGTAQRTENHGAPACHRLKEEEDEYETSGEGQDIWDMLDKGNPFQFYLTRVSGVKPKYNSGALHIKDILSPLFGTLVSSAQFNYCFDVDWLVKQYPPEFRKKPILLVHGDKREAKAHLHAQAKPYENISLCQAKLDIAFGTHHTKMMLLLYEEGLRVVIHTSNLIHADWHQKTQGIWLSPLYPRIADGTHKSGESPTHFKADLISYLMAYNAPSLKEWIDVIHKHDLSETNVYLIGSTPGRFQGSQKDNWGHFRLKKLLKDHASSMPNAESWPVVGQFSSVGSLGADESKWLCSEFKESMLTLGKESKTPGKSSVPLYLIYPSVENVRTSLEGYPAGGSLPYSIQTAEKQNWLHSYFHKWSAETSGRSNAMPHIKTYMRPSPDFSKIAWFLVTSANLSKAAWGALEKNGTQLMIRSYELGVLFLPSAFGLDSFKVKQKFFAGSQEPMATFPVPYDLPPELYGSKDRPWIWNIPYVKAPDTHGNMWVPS
# H493R Tdp1 mutant, sequence (Q9NUW8 whole entry H493R): as the sequence (Q9NUW8 whole entry) above, with H493R counted along it
SMILES,concentration at which Tdp1 is inhibited (in words) (Tdp1 [1]),Tdp1 inhibition (in words) (Tdp1 [2]),Tdp1 inhibition (in words) (Tdp1 [3]),accumulation of the covalent Tdp1-DNA intermediate (H493R Tdp1 mutant),also measured
[O]=[W](=[O])([O-])[O-] [tungstate],millimolar concentrations,–,–,–,–
CN(N=O)c1cc(O)ccc1O [dephostatin],–,only a trace level of inhibition,only trace inhibition,much weaker effect,Tdp1 inhibition (in words) (Tdp1 [2]; listed as Dephostatin): only trace inhibition; effect on binding of the Tdp1 DNA substrate (DNA trapping) (H493R Tdp1 mutant; SCAN1 Tdp1 mutant): almost no effect
[O]=[V]([O-])([O-])[O-] [vanadate],millimolar concentrations,–,–,–,"Tdp1 inhibition potency (in words) (Tdp1 [3]; AlphaScreen assay, 384-well, Fig. 3C): inhibition in the sub-millimolar range"
"N=C(N)c1ccc(-c2ccc(-c3ccc(C(=N)N)cc3)o2)cc1 [Furamidine, furamidine]",micromolar concentrations,–,–,–,–
"CN(N=O)c1ccc(O)c(O)c1 [methyl-3,4-dephostatin]",–,sub-micromolar concentration,sub-micromolar concentration,completely prevented,inhibition of CD-45 associated PTP (CD-45 associated PTP): does not inhibit
